Consider one compound from ChEMBL document CHEMBL4020815 (J Med Chem, 2017).

Data set [1] in a line: Equilibrium aqueous solubility of the compound at pH 7.5 after 20 hrs by HPLC method. The format is physicochemical.
The nature of data set [2]: Plasma concentration in CD-1 mouse at 10 mg/kg, po after 1 hr by LC-MS/MS method. The format is ADME, organism-based.
Data set [3] deals with Mus musculus. The data set is described as follows: Unbound AUC in CD-1 mouse at 10 mg/kg, po by LC-MS/MS method. The class given is ADME, organism-based. Particulars: in vivo.
In data set [4] the test system is Mus musculus. The data set is described as follows: In vivo inhibition of AICARFT in tumor of low folate diet fed nude mouse xenografted with human NCI-H460 cells assessed as increase in intratumoral ZMP levels at 0.3 to 30 mg/kg after 4 hrs relative to vehicle-treated control. The class given is functional. (In general: In xenograft studies the graft and the host belong to different species.)

Data set [5] has as its target T1, Serine hydroxymethyltransferase, cytosolic (Homo sapiens, UniProt P34896).
T1 sequence (P34896 whole entry): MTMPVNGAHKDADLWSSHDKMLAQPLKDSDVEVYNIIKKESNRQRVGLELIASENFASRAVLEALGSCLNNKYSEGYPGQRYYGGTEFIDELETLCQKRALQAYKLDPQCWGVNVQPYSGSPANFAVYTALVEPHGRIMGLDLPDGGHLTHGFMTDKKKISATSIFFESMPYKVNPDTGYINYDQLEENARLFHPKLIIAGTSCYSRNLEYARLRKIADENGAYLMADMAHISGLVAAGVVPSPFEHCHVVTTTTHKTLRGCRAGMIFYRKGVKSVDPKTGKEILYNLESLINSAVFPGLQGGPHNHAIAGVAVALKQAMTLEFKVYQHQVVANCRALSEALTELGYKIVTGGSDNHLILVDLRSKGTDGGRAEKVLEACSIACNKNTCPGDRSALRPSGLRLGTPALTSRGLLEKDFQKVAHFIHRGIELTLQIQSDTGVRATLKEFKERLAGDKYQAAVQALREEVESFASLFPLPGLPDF
The data set is described as follows: Inhibition of SHMT1 (unknown origin) using serine/THF as substrate after 50 mins by HPLC method.

For data set [6], the target named is T2, Bifunctional methylenetetrahydrofolate dehydrogenase/cyclohydrolase 2, mitochondrial (Homo sapiens, UniProt Q9H903).
T2 sequence (Q9H903 whole entry): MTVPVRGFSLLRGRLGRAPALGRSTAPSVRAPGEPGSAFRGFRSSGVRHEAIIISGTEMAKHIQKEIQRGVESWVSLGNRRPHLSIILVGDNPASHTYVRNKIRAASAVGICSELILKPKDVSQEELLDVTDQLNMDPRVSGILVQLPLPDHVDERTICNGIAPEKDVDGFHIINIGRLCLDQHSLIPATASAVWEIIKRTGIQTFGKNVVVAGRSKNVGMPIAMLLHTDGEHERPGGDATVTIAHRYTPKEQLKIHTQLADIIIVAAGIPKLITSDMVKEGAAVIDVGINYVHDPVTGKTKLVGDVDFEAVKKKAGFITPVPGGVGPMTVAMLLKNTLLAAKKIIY
The data set is described as follows: Inhibition of MTHFD2L (unknown origin) using NAD/5,10-methylene THF as substrate after 2 hrs by HPLC method.

Data set [7] is described as follows: Drug metabolism in microsomes (unknown origin). The class given is ADME, Microsome. To be noted: read-out: Drug metabolism.
For data set [8], the system named is Mus musculus. The data set is described as follows: In vivo inhibition of AICARFT in tumor of athymic nude mouse xenografted with human MDA-MB-231met2 cells assessed as increase in ZMP levels at 60 mg/kg, bid administered via oral gavage for 22 days relative to control. The format is functional.

In brackets after ≈: the same amount, converted by molar mass.

The solubility (thermodynamic) is solubility found after equilibrating the solid with the medium. What is called IC50 is the concentration at which inhibition is half-maximal. With `O=c1[nH]ccc2cc(F)c(NS(=O)(=O)c3ccc(N4CC[C@@H](O)C4)s3)cc12`, the thermodynamic solubility at 20 h in data set [1] stood at 20 µg/mL (≈ 48.8 µM). The compound further registered a concentration at 1 h in data set [2] of 8.5 µM. For the same compound, the fAUC in the data set on Mus musculus [3] was determined as 1.279 µM·h. Also, the “fold change (FC)” value is above 100 with Mus musculus [4] and 16 with Mus musculus [8]. Besides, the IC50 in data set [5] and in data set [6] was above 100 µM each time. Besides, the metabolised in data set [7] was below 10%.
